Assay [1] is described as follows: blood metabolic parameters in C57BL/6 DIO mice. It is filed as in vivo, mouse. On the procedure:
O2 consumption of animals was recorded by a known method. For indirect calorimetry, mice were individually housed in calorimetry chambers (Oxymax OPTO-M3 system; Columbus Instruments, Columbus, Ohio). Animals were allowed to acclimate to a new environment for 48 hours prior to the experiment, and amounts of O2 consumption and CO2 production were measured for […] every 30 minutes. Mice were given free access to food and drinking water during the first 24 h period, and animals were given access to drinking water only during the second 24 h period. Blood samples were taken from a heparinized tube, immediately placed on ice, centrifuged and stored at −20[…] for future use. Enzymatic colorimetry was employed for quantification of triglyceride (TG), total cholesterol, free fatty acids, and glucose (Beckman Instruments, CA). Plasma insulin (Linco Research, MO), TNFα (R&D System), adiponectin (Linco Research, MO), resistin (KOMED) and leptin (Linco Research, MO) were quantified by ELISA.

Assay [2] relates to HepG2 cells. The assay can be described thus: intracellular NADH / NAD(P)H concentration in HepG2 cells. It is filed as cell-based, human. The procedure:
A water-soluble tetrazolium salt was used to monitor the amount of NAD(P)H through its reduction to a yellow colored formazan dye. The total amount of NAD(P)H within viable cells in the medium was determined periodically by a spectrophotometer. Cells were seeded in 96-well plates (2×10^4 cells/well) and were cultured in 100 μl of a medium containing fetal bovine serum (FBS) and antibiotics for 24 hours. Immediately after treatment of the cells with a candidate compound (e.g., pyrano-1,2-naphthoquinone) at indicated concentrations and a 1/10 volume of a CCK-8 solution (Dojindo Molecular Technology), absorbance measurements were carried out using a spectrophotometer. […] In addition, a medium blank was prepared with only medium and physiological saline. In order to monitor monochromatic fluorescence (350 nm), light was illuminated using a 75 W xenon arc lamp directed via a 10 Hz chopper wheel; specific fluorescence intensity was measured at a wavelength of 405±15 nm and 460±10 nm.

Assay [3] can be described thus: body weight and dietary intake of leptin receptor-deficient (ob/ob) mice. It is filed as in vivo, mouse. The procedure:
All experimental animal procedures were performed according to a guideline of Institutional Animal Care and Use Committee, Chungnam National University School of Medicine. OLETF rats were purchased from Otsuka Research Institute. Male ob/ob and C57BL/6 mice were purchased from Jackson Laboratory. Animals were housed in a breeding room maintained at a constant temperature of […] and a 12 h/12 h light/dark (L/D) cycle. 4-week-old C57BL/6 male mice were fed ad libitum high fat diet (HFD, 24% (w/w) and 45% calories as fat, Research Diets Inc., New Brunswick, N.J. 08901, US) for 7 weeks. Mouse groups were divided into an untreated group, a vehicle-treated group (calcium silicate), a pair-fed group and a candidate compound-treated group (calcium silicate-coated […] nanoparticles). Body weight and dietary intake of animals were daily measured. Upon completion of experiments, some mice of each group were anesthetized and received MRI examinations. The remaining mice of the groups were anatomized and tissue weight thereof was measured. Epidydimal fat, liver, soleus muscle and extensor digitorum longus (EDL) were prepared, and immunohistochemical, oil-red 0 and pH-sensitive ATPase staining were performed for analysis.
FIGS. 46 and 47 show changes in dietary intake/body weight and changes in body weight for 56 days, according to daily administration of pyrano-1,2-naphthoquinone into leptin receptor-deficient (ob/ob) mice at a dose of 200 mg/kg via an oral route.
This Example was intended to examine effects of varying in vivo NAD(P)^+/NAD(P)H ratio by arbitrary external supply of NAD(P)^+, a method capable of elevating the NAD(P)^+/NAD(P)H ratio in vivo. 100 mg/kg of NAD^+ was administered daily to leptin receptor-deficient (ob/ob) mice via an intraperitoneal (i.p.) route. A control mice group was given i.p. administration of physiological saline at the same dose. Changes in dietary intake/body weight (A) and changes in body weight (B) were measured for 30 days.
200 mg/kg of DMF was daily administered to leptin receptor-deficient (ob/ob) mice via an oral route. A control group received daily i.p. administration of physiological saline at the same dose. Changes in body weight (A) and changes in dietary intake (B) were measured for 30 days. It was confirmed that dietary intake of the treatment group was regulated to a 60 to 70% level of the control group.
For a variety of NQO1-activating candidate compounds as listed in Table 1 below, a decrease of NAD(P)H was measured based on the aforesaid experimental method (disclosed in Section 10 hereinbefore: NADH recycling assay). In addition, according to the experimental method given in Example 23, the body weight of ob/ob mice after four weeks was measured.
In this connection, the decreasing degree of NAD(P)H was expressed as a relative amount of NAD(P)H measured upon administration of the NQO1-activating candidate compound, by taking the amount of NAD(P)H in the absence of the NQO1 activator NAD(P)H to be 100. In addition, the degree of the body weight loss was expressed as a percentage of the body weight of ob/ob mice with administration of the NQO1-activating candidate compound, relative to the body weight of ob/ob mice without administration of the NQO1-activating candidate compound (control) after four weeks.

Assay [4] is described as follows: beta-oxidation assay: 14C-palmitic acid incorporated into liver triglyceride. Type of assay: in vivo, mouse. Conditions: DIO mice fed 50 mg/kg for 7 days; liver removed 10 min after 14C-palmitic acid IV.
Method: The injection solution prepared in Section 1 was injected into tail veins of DIO mice at a dose of 10 microCi/150 μl/head, and the liver was removed 10 min later.
The removed liver was immediately and rapidly frozen in liquid nitrogen and weighed. A 5-fold weight of a 5 mM Tris-HCl buffer solution containing 0.25 M sucrose, 5 mM MgCl2, 1 mM mercaptoethanol and 0.5 mM EDTA was added to the liver tissues which were then homogenized. Equal amounts of each sample was taken and transferred to fresh 15 mL containers to which a 2.5-fold amount of C/M solution (chloroform:MetOH=2:1) was added, respectively. The mixtures were thoroughly mixed using a homogenizer for 2 min, centrifuged at 2500 rpm for 20 min to separate chloroform layers that were then transferred to fresh containers. The remaining materials were thoroughly mixed with 2-fold amounts of the C/M solution for 2 min, and centrifuged to separate chloroform layers. […] Then, more than 10-fold volumes of a toluene cocktail solution were added to chloroform layers of the vials and the mixtures were thoroughly mixed using a stirrer, and radioactivity was measured using a scintillation counter.
10 μCi of 14C-palmitic acid was IV-injected to a tail vein of mice and 10 min later the liver was removed and homogenized Fat was extracted from the homogenizate, and radioactivity was measured by a liquid scintillation counter.
A short description of assay [5]: spontaneous locomotor activity. Conditions: C57BL/6 DIO mice, 3 hours after administration, measured for 7 hours. Type of assay: in vivo, mouse. On the procedure: Pyrano-1,2-naphthoquinone was administered to C57BL/6 DIO mice, and 3 hours later spontaneous locomotor activity was measured using Versa MAX Activity Monitors & Analyzer (AccuSan Instruments, Columbus, Ohio, USA). […] In order to distinguish between spontaneous locomotor and stereotypic/grooming behavior, animal activity was measured by taking continuous interference of two different scanning lines caused by mice as an effective determination standard. The pyrano-1,2-naphthoquinone-administered group, the vehicle-administered group and the control group were respectively placed in each measuring apparatus, and activity and motion of animals were measured for 7 hours. For acclimation of the animals to the new environment, mice were placed in the apparatus 2 hours prior to measurement.

One molecule from patent US20140106387A1, “METHOD FOR CONTROLLING NAD(P)/NAD(P)H RATIO BY OXIDOREDUCTASE” (MD BIOALPHA CO., LTD., priority 2006, published 2014) can be followed below.

Take `CC1(C)CCC2=C(O1)c1ccccc1C(=O)C2=O` [βL, 2,2-Dimethyl-3,4-dihydro-2H-benzo[h]chromene-5,6-dione]: in assay [1] (50 mg/kg daily oral), the “blood level of resistin” value is “significantly improved”; the “insulin resistance and leptin resistance” value was “improved”. Moreover, the “blood fat and glucose levels” value in assay [1] (Days 3, 7, 14, 28 and 56, 50 mg/kg daily oral) is given as “significantly improved”. The “decrease of NAD(P)H” value in assay [2] (HepG2 cells having NQO1 activity, NAD(P)H fluorescence) was “about 40%”. In addition, the “intracellular NADH concentration” value in assay [2] (HepG2 having an NQO1 activity, treatment for 2 hours, real-time measurement) is given as “concentration-dependent decrease of NADH”. In assay [3] (200 mg/kg daily oral, 56 days), the body weight result is listed as “effectively decreases body weight”. The “dietary intake level recovered, relative to control group” value in assay [3] (200 mg/kg daily oral, after around 10 days) turned out to be 70%. Further, the dietary intake/body weight entry in assay [3] (200 mg/kg daily oral, at around 10 days) was “notably decreased”. The “Weight reduction In ob/ob mice (4 wk)” value in assay [3] (after four weeks, relative to ob/ob mice without administration (control), method of Example 23) was −16.8 ± 2.9%. Further, the “amount of 14C-palmitic acid incorporated into hepatic triglyceride (TG), lower than vehicle-treated mice” value in assay [4] was “about 45%”. The spontaneous locomotor activity result in assay [5] is “significant difference in the motion and activity of animals”.
